Measurements published in PubChem BioAssay AID1918958 (Molecular Pharmacology Branch, DTP, NCI, 2023).

Tested on: NCI-H196 complex spheroid viability
Assay: Anticancer human tumor NCI-H196 cell line growth inhibition [LSD1];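 note: spheroids exposed to agents for 7 days before readout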;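 for viability, T/C: 100% = DMSO vehicle control viability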
Settings: for IC50: curve of first compound; for viability, T/C: stronger effect = lower value; active = viability on the fitted dose curve at most 10% of control; inactive = the rest
Procedure, shortened: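 Drug combinations with the LSD1 inhibitor iadademstat tested on tumor cells co-cultured as spheroids with endothelial cells and mesenchymal stem cells. Concentrations descended in half-log increments from clinical Cmax or 10 microM.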

[1] = second compound 0.1 µM, first compound 0.000316 µM
[2] = second compound 0.1 µM, first compound 0.001 µM
[3] = second compound 0.1 µM, first compound 0.00316 µM
[4] = second compound 0.1 µM, first compound 0.01 µM
[5] = second compound 0.1 µM, first compound 0.0316 µM
[6] = second compound 0.1 µM, first compound 0.1 µM
[7] = second compound 0.316 µM, first compound 0.000316 µM
[8] = second compound 0.316 µM, first compound 0.001 µM
[9] = second compound 0.316 µM, first compound 0.00316 µM
[10] = second compound 0.316 µM, first compound 0.01 µM
[11] = second compound 0.316 µM, first compound 0.0316 µM
[12] = second compound 0.316 µM, first compound 0.1 µM
[13] = second compound 1 µM, first compound 0.000316 µM
[14] = second compound 1 µM, first compound 0.001 µM
[15] = second compound 1 µM, first compound 0.00316 µM
[16] = second compound 1 µM, first compound 0.01 µM
[17] = second compound 1 µM, first compound 0.0316 µM
[18] = second compound 1 µM, first compound 0.1 µM
[19] = second compound 3.16 µM, first compound 0.000316 µM
[20] = second compound 3.16 µM, first compound 0.001 µM
[21] = second compound 3.16 µM, first compound 0.00316 µM
[22] = second compound 3.16 µM, first compound 0.01 µM
[23] = second compound 3.16 µM, first compound 0.0316 µM
[24] = second compound 3.16 µM, first compound 0.1 µM
[25] = second compound 10 µM, first compound 0.000316 µM
[26] = second compound 10 µM, first compound 0.001 µM
[27] = second compound 10 µM, first compound 0.00316 µM
[28] = second compound 10 µM, first compound 0.01 µM
[29] = second compound 10 µM, first compound 0.0316 µM
[30] = second compound 10 µM, first compound 0.1 µM

CC(C)CC(NC(=O)C(Cc1ccccc1)NC(=O)c1cnccn1)B(O)O (stereo not given) + NC1CCC(NC2CC2c2ccccc2)CC1
0.000529 µM: IC50 (second compound 0.1 µM)
0.000508 µM: IC50 (second compound 3.16 µM)
active: viability, T/C [2] 7.65% | viability, T/C [3] 4.44% | viability, T/C [4] 3.35% | viability, T/C [5] 1.92% | viability, T/C [6] 1.52% | viability, T/C [9] 3.34% | viability, T/C [10] 2.71% | viability, T/C [11] 2.22% | viability, T/C [12] 0.68% | viability, T/C [14] 6.67% | viability, T/C [15] 3.82% | viability, T/C [16] 2.43% | viability, T/C [17] 2.03% | viability, T/C [18] 0.58% | viability, T/C [20] 5.93% | viability, T/C [21] 3.18% | viability, T/C [22] 2.05% | viability, T/C [23] 2.04% | viability, T/C [24] 0.46% | viability, T/C [26] 4.35% | viability, T/C [27] 2.41% | viability, T/C [28] 1.45% | viability, T/C [29] 0.95% | viability, T/C [30] 0.47%
0.000555 µM: IC50 (second compound 0.316 µM)
inactive: viability, T/C [1] 84.1% | viability, T/C [7] 87.9% | viability, T/C [8] 10.3% | viability, T/C [13] 95.9% | viability, T/C [19] 80.8% | viability, T/C [25] 82.5%
0.000572 µM: IC50 (second compound 1 µM)
0.000511 µM: IC50 (second compound 10 µM)

CC(C)CC(NC(=O)CNC(=O)c1cc(Cl)ccc1Cl)B1OC(=O)CC(CC(=O)O)(C(=O)O)O1 (stereo not given) + NC1CCC(NC2CC2c2ccccc2)CC1
0.0201 µM: IC50 (second compound 10 µM)
active: viability, T/C [6] 8.24% | viability, T/C [12] 8.69% | viability, T/C [24] 9.23% | viability, T/C [30] 6.12%
0.0187 µM: IC50 (second compound 1 µM)
inactive: viability, T/C [1] 107% | viability, T/C [2] 109% | viability, T/C [3] 102% | viability, T/C [4] 78% | viability, T/C [5] 26.1% | viability, T/C [7] 106% | viability, T/C [8] 106% | viability, T/C [9] 101% | viability, T/C [10] 78.5% | viability, T/C [11] 29.5% | viability, T/C [13] 103% | viability, T/C [14] 105% | viability, T/C [15] 120% | viability, T/C [16] 71.9% | viability, T/C [17] 31.4% | viability, T/C [18] 7.57% | viability, T/C [19] 99.5% | viability, T/C [20] 107% | viability, T/C [21] 102% | viability, T/C [22] 85.8% | viability, T/C [23] 31.9% | viability, T/C [25] 102% | viability, T/C [26] 104% | viability, T/C [27] 105% | viability, T/C [28] 75.7% | viability, T/C [29] 33%
0.0195 µM: IC50 (second compound 0.316 µM)
0.0186 µM: IC50 (second compound 0.1 µM)
0.0215 µM: IC50 (second compound 3.16 µM)

Nc1ccccc1NC(=O)c1ccc(CNC(=O)OCc2cccnc2)cc1 + NC1CCC(NC2CC2c2ccccc2)CC1
0.0593 µM: IC50 (second compound 0.316 µM)
0.0735 µM: IC50 (second compound 10 µM)
active: viability, T/C (second compound 0.1 µM, first compound 0.949 µM) 0.32% | viability, T/C (second compound 0.1 µM, first compound 3 µM) 1.24% | viability, T/C (second compound 0.316 µM, first compound 0.949 µM) 0.27% | viability, T/C (second compound 0.316 µM, first compound 3 µM) 0.3% | viability, T/C (second compound 1 µM, first compound 0.949 µM) 0.24% | viability, T/C (second compound 1 µM, first compound 3 µM) 0.35% | viability, T/C (second compound 3.16 µM, first compound 0.3 µM) 10.2% | viability, T/C (second compound 3.16 µM, first compound 0.949 µM) 0.27% | viability, T/C (second compound 3.16 µM, first compound 3 µM) 0.26% | viability, T/C (second compound 10 µM, first compound 0.949 µM) 1.12% | viability, T/C (second compound 10 µM, first compound 3 µM) 0.38%
0.0622 µM: IC50 (second compound 0.1 µM)
inactive: viability, T/C (second compound 0.1 µM, first compound 0.00949 µM) 82.9% | viability, T/C (second compound 0.1 µM, first compound 0.03 µM) 66.6% | viability, T/C (second compound 0.1 µM, first compound 0.0949 µM) 41% | viability, T/C (second compound 0.1 µM, first compound 0.3 µM) 12% | viability, T/C (second compound 0.316 µM, first compound 0.00949 µM) 81.2% | viability, T/C (second compound 0.316 µM, first compound 0.03 µM) 69.3% | viability, T/C (second compound 0.316 µM, first compound 0.0949 µM) 36.4% | viability, T/C (second compound 0.316 µM, first compound 0.3 µM) 11.9% | viability, T/C (second compound 1 µM, first compound 0.00949 µM) 84.8% | viability, T/C (second compound 1 µM, first compound 0.03 µM) 73.3% | viability, T/C (second compound 1 µM, first compound 0.0949 µM) 49.9% | viability, T/C (second compound 1 µM, first compound 0.3 µM) 12.2% | viability, T/C (second compound 3.16 µM, first compound 0.00949 µM) 85.3% | viability, T/C (second compound 3.16 µM, first compound 0.03 µM) 78.9% | viability, T/C (second compound 3.16 µM, first compound 0.0949 µM) 43.4% | viability, T/C (second compound 10 µM, first compound 0.00949 µM) 89.7% | viability, T/C (second compound 10 µM, first compound 0.03 µM) 73.6% | viability, T/C (second compound 10 µM, first compound 0.0949 µM) 44.3% | viability, T/C (second compound 10 µM, first compound 0.3 µM) 12.1%
0.0886 µM: IC50 (second compound 1 µM)
0.0774 µM: IC50 (second compound 3.16 µM)

O=C(c1cc(Cc2n[nH]c(=O)c3ccccc23)ccc1F)N1CCN(C(=O)C2CC2)CC1 + NC1CCC(NC2CC2c2ccccc2)CC1
> 10 µM: IC50 (second compound 0.1 µM) | IC50 (second compound 0.316 µM) | IC50 (second compound 1 µM) | IC50 (second compound 3.16 µM) | IC50 (second compound 10 µM)
inactive: viability, T/C [5] 91.8% | viability, T/C [6] 97.9% | viability, T/C (second compound 0.1 µM, first compound 0.316 µM) 91.7% | viability, T/C (second compound 0.1 µM, first compound 1 µM) 86.5% | viability, T/C (second compound 0.1 µM, first compound 3.16 µM) 93.5% | viability, T/C (second compound 0.1 µM, first compound 10 µM) 88.3% | viability, T/C [11] 89.8% | viability, T/C [12] 103% | viability, T/C (second compound 0.316 µM, first compound 0.316 µM) 97.8% | viability, T/C (second compound 0.316 µM, first compound 1 µM) 94.8% | viability, T/C (second compound 0.316 µM, first compound 3.16 µM) 83.4% | viability, T/C (second compound 0.316 µM, first compound 10 µM) 83% | viability, T/C [17] 89.9% | viability, T/C [18] 91.4% | viability, T/C (second compound 1 µM, first compound 0.316 µM) 95.6% | viability, T/C (second compound 1 µM, first compound 1 µM) 83.5% | viability, T/C (second compound 1 µM, first compound 3.16 µM) 89% | viability, T/C (second compound 1 µM, first compound 10 µM) 80.1% | viability, T/C [23] 91% | viability, T/C [24] 87% | viability, T/C (second compound 3.16 µM, first compound 0.316 µM) 88% | viability, T/C (second compound 3.16 µM, first compound 1 µM) 87.4% | viability, T/C (second compound 3.16 µM, first compound 3.16 µM) 85.7% | viability, T/C (second compound 3.16 µM, first compound 10 µM) 87.5% | viability, T/C [29] 89.9% | viability, T/C [30] 90.2% | viability, T/C (second compound 10 µM, first compound 0.316 µM) 88.1% | viability, T/C (second compound 10 µM, first compound 1 µM) 89.5% | viability, T/C (second compound 10 µM, first compound 3.16 µM) 85.7% | viability, T/C (second compound 10 µM, first compound 10 µM) 86.8%
